Laboratory results reported in patent US20190038588A1, “NOVEL CLASS OF COMPOUNDS FOR THE TREATMENT OF CARDIOVASCULAR DISEASE” (STICHTING KATHOLIEKE UNIVERSITEIT, priority 2016, published 2019).
Marks after values point to notes of the source that are not given here.

Columns and labels:
[1] = target: T1, catalytic domain of the human HMG-CoA reductase (Homo sapiens, UniProt P04035); assay: HMG-CoA reductase activity and inhibition assay (Sigma CS-1090 kit, NADPH oxidation at 340 nm); assay type: biochemical; conditions: for HMGR activity (% of control) Mean (SEM): compound at 300 nM, n = 3 independent experiments
T1 construct: containing the catalytic domain of the human HMG-CoA reductase; purchased Sigma-Aldrich CS-1090
T1 sequence (P04035 426-888 limits assumed): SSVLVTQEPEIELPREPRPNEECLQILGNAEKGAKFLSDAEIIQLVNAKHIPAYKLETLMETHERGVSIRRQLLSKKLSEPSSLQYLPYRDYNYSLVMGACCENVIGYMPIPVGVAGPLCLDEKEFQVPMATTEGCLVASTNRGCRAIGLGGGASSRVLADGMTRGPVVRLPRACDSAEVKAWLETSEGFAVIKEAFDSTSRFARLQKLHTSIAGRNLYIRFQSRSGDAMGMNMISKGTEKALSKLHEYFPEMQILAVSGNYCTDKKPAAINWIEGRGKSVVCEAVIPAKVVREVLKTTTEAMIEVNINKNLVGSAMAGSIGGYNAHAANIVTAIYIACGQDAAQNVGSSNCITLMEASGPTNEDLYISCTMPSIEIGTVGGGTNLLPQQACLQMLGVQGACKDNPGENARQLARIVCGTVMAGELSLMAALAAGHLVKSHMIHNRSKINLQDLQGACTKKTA
Experimental: The human HMG-CoA reductase activity and inhibition assays were performed using the HMG-CoA reductase Assay Kit from Sigma-Aldrich (Sigma CS-1090), containing the catalytic domain of the human HMG-CoA reductase. Enzyme activity was determined spectrophotometrically, measuring the oxidation of NADPH at 340 nm. The reaction mixture contained: 0.13 mM HMG-CoA, HMG-CoA reductase, and 50 mM Tris-HCl, (pH 7.5). After 15 min incubation at 37° C., the reaction was started with the addition of 0.13 mM NADPH, and monitored for 30 min. The enzyme activity was determined using the linear domain of the curve. These experiments were generally performed in small reaction volumes to increase throughput. Experiments in larger reaction volumes can improve reliability of obtained values, and are planned.

[2] = target: T2, mitochondrial complex III (Mus musculus, UniProt P00158); assay: Complex III enzyme activity in mitochondrial fractions of C2C12 cells (cytochrome c reduction at 550 nm); assay type: biochemical; conditions: compound at 100 μM; background by antimycin A (2.5 μM); n = 3 independent experiments
T2 construct: the supernatant containing the mitochondria was pelleted at 14,000 g; endogenous in cells; host or cells: C2C12 cells, mitochondrial fraction
Experimental: C2C12 pellets of 20·10^6 cells were snap frozen in liquid nitrogen and kept at −80° C. until use. For preparation of the mitochondrial fractions, tissues and cells were homogenized, resuspended in 10 mM Tris-HCl (pH 7.6), and snap frozen in aliquots as follows: cells were resuspended in 10 mM Tris-HCl and pottered, and sucrose was added (215 mM). The lysate was cleared of unbroken cells by centrifugation (10 minutes 600 g) after which the supernatant containing the mitochondria was pelleted at 14,000 g for 10 minutes, resuspended in 10 mM Tris-HCl (pH 7.6), and snap frozen in aliquots. Complex III enzyme activity was measured spectrophotometrically in duplicate as described before by determination of the cytochrome c reduction at 550 nm (Janssen et al., 2007; Mourmans et al., 1997; Rodenburg, 2011). For these measurements the following substrates were used: decylubiquinol (300 μM) and cytochrome c (50 μM). Background substraction was based on decylubiquinol auto-oxidation rates for FIG. 2, and on antimycin A (2.5 μM) for table 4. The enzyme activity was determined using the linear domain of the curve. These experiments were generally performed in small reaction volumes to increase throughput. Experiments in larger reaction volumes can improve reliability of obtained values, and are planned.

Row | HMGR activity (% of control) Mean (SEM) [1] | IC50 ([1]; dose-response curve of FIG. 2C, 95%-CI printed in the row below) [µM] | complex III activity (% of control) Mean (SEM) [2] | SMILES
1 | 63.10 (10.70) % of control | 0.039 | – | CCC(C)(C)C(=O)O[C@H]1C[C@@H](C)C=C2C=C[C@H](C)[C@H](CC[C@@H](O)C[C@@H](O)CC(=O)O)[C@H]21 [simvastatin carboxylic acid, reference compound]
2 | 102.30 (10.00) % of control | – | 104.10 (12.47) % of control | CC[C@H](C)C(=O)O[C@H]1C[C@@H](C)C=C2C=C[C@H](C)[C@H](CC[C@@H](O)C[C@@H](O)CC(N)=O)[C@H]21 [lovastatin amide, (1S,3R,7S,8S,8aR)-8-((3R,5R)-7-amino-3,5-dihydroxy-7-oxoheptyl)-3,7-dimethyl-1,2,3,7,8,8a-hexahydronaphthalen-1-yl (S)-2-methylbutanoate]
3 | 81.28 (4.70) % of control | – | 85.24 (4.09) % of control | CC(C)c1nc(N(C)S(C)(=O)=O)nc(-c2ccc(F)cc2)c1/C=C/[C@@H](O)C[C@@H](O)Cc1nnn[nH]1 [rosuvastatin tetrazole, N-(5-((3S,5S,E)-3,5-dihydroxy-6-(1H-tetrazol-5-yl)hex-1-en-1-yl)-4-(4-fluorophenyl)-6-isopropylpyrimidin-2-yl)-N-methylmethanesulfonamide]
4 | 60.87 (4.50) % of control | – | 105.60 (13.57) % of control | CC(C)c1c(C(=O)Nc2ccccc2)c(-c2ccccc2)c(-c2ccc(F)cc2)n1CC[C@@H](O)C[C@@H](O)CC(=O)NO [atorvastatin hydroxamic acid, 1-((3R,5R)-3,5-dihydroxy-7-(hydroxyamino)-7-oxoheptyl)-5-(4-fluorophenyl)-2-isopropyl-N,4-diphenyl-1H-pyrrole-3-carboxamide]
5 | 72.81 (9.03) % of control | – | 90.25 (7.98) % of control | CC(C)c1nc(N(C)S(C)(=O)=O)nc(-c2ccc(F)cc2)c1/C=C/[C@@H](O)C[C@@H](O)CC(=O)NO [rosuvastatin hydroxamic acid, (3R,5S,E)-7-(4-(4-fluorophenyl)-6-isopropyl-2-(N-methylmethylsulfonamido)pyrimidin-5-yl)-N,3,5-trihydroxyhept-6-enamide]
6 | 70.19 (6.79) % of control | – | 92.95 (10.32) % of control | CC[C@H](C)C(=O)O[C@H]1C[C@@H](C)C=C2C=C[C@H](C)[C@H](CC[C@@H](O)C[C@@H](O)CC(=O)NO)[C@H]21 [lovastatin hydroxamic acid, (1S,3R,7S,8S,8aR)-8-((3R,5R)-3,5-dihydroxy-7-(hydroxyamino)-7-oxoheptyl)-3,7-dimethyl-1,2,3,7,8,8a-hexahydronaphthalen-1-yl (S)-2-methylbutanoate]
7 | 73.44 (2.81) % of control | – | 74.37 (4.20) % of control | CCC(C)(C)C(=O)O[C@H]1C[C@@H](C)C=C2C=C[C@H](C)[C@H](CC[C@@H](O)C[C@@H](O)Cc3nc(=O)o[nH]3)[C@H]21 [simvastatin oxo-oxadiazole, (1S,3R,7S,8S,8aR)-8-((3R,5)-3,5-dihydroxy-6-(5-oxo-2,5-dihydro-1,2,4-oxadiazol-3-yl)hexyl)-3,7-dimethyl-1,2,3,7,8,8a-hexahydronaphthalen-1-yl 2,2-dimethylbutanoate]
8 | 91.35 (15.32) % of control | – | 88.90 (7.89) % of control | CC(C)c1nc(N(C)S(C)(=O)=O)nc(-c2ccc(F)cc2)c1/C=C/[C@@H](O)C[C@@H](O)CC(=O)N(C)C [rosuvastatin dimethylamide, (3R,5S,E)-7-(4-(4-fluorophenyl)-6-isopropyl-2-(N-methylmethylsulfonamido)-pyrimidin-5-yl)-3,5-dihydroxy-N,N-dimethylhept-6-enamide]
9 | 100.30 (7.82)^a % of control | – | 143.50 (15.67) % of control | CC(C)c1nc(N(C)S(C)(=O)=O)nc(-c2ccc(F)cc2)c1/C=C/[C@@H](O)C[C@@H](O)c1nc(=O)o[nH]1 [rosuvastatin nor-oxo-oxadiazole, N-(5-((3S,5R,E)-3,5-dihydroxy-5-(5-oxo-2,5-dihydro-1,2,4-oxadiazol-3-yl)pent-1-en-1-yl)-4-(4-fluorophenyl)-6-isopropylpyrimidin-2-yl)-N-methylmethane-sulfonamide]
10 | – | – | 44.55 (6.27) % of control | CCC(C)(C)C(=O)O[C@H]1C[C@@H](C)C=C2C=C[C@H](C)[C@H](CC[C@@H]3C[C@@H](O)CC(=O)O3)[C@H]21 [simvastatin lactone, reference compound]
11 | 97.37 (3.89) % of control | – | 54.34 (7.70) % of control | CC(C)c1c(C(=O)Nc2ccccc2)c(-c2ccccc2)c(-c2ccc(F)cc2)n1CC[C@@H](O)C[C@@H](O)CC(N)=O [atorvastatin amide, 1-((3R,5R)-7-amino-3,5-dihydroxy-7-oxoheptyl)-5-(4-fluorophenyl)-2-isopropyl-N,4-diphenyl-1H-pyrrole-3-carboxamide]
12 | 24.39 (8.91) % of control | – | – | CC(C)c1c(C(=O)Nc2ccccc2)c(-c2ccccc2)c(-c2ccc(F)cc2)n1CC[C@@H](O)C[C@@H](O)CC(=O)O [atorvastatin carboxylic acid, reference compound]
13 | 110.10 (11.81) % of control | – | 73.77 (7.57) % of control | CCC(C)(C)C(=O)O[C@H]1C[C@@H](C)C=C2C=C[C@H](C)[C@H](CC[C@@H](O)C[C@@H](O)CC(N)=O)[C@H]21 [simvastatin amide, (1S,3R,7S,8S,8aR)-8-((3R,5R)-7-amino-3,5-dihydroxy-7-oxoheptyl)-3,7-dimethyl-1,2,3,7,8,8a-hexahydronaphthalen-1-yl 2,2-dimethylbutanoate]
14 | – | – | 80.98 (3.75) % of control | CC(C)c1c(C(=O)Nc2ccccc2)c(-c2ccccc2)c(-c2ccc(F)cc2)n1CC[C@@H]1C[C@H](O)CC(=O)O1 [atorvastatin lactone, 5-(4-fluorophenyl)-1-(2-((2R,4S)-4-hydroxy-6-oxotetrahydro-2H-pyran-2-yl)ethyl)-2-isopropyl-N,4-diphenyl-1H-pyrrole-3-carboxamide, reference compound]
15 | 102.50 (7.87) % of control | – | 95.96 (11.43) % of control | CC(C)c1nc(N(C)S(C)(=O)=O)nc(-c2ccc(F)cc2)c1/C=C/[C@@H](O)C[C@@H](O)CC#N [rosuvastatin nitrile, N-(5-((3S,5S,E)-6-cyano-3,5-dihydroxyhex-1-en-1-yl)-4-(4-fluorophenyl)-6-isopropylpyrimidin-2-yl)-N-methylmethanesulfonamide]
16 | – | – | 63.21 (3.31) % of control | CC[C@H](C)C(=O)O[C@H]1C[C@@H](C)C=C2C=C[C@H](C)[C@H](CC[C@@H]3C[C@@H](O)CC(=O)O3)[C@H]21 [lovastatin lactone, reference compound]
17 | 68.18 (14.81) % of control | – | – | CC[C@H](C)C(=O)O[C@H]1C[C@@H](C)C=C2C=C[C@H](C)[C@H](CC[C@@H](O)C[C@@H](O)CC(=O)O)[C@H]21 [lovastatin carboxylic acid, reference compound]
18 | 24.09 (3.30) % of control | – | – | CC(C)c1nc(N(C)S(C)(=O)=O)nc(-c2ccc(F)cc2)c1/C=C/[C@@H](O)C[C@@H](O)CC(=O)O [rosuvastatin carboxylic acid, reference compound]
